Laboratory results reported in patent publication US20180106782A1, “HIGH THROUGHPUT CARDIOTOXICITY SCREENING PLATFORM” (The Board of Trustees of the Leland Stanford Junior …, priority 2016, published 2018).

System: μpatterned hiPSC-CMs
Test: traction force microscopy of moving microbeads under beating μpatterned hiPSC-CMs
Assay type: cell-based, human
Conditions: for absolute values of dmax, VC, VR, ΣFmax, PC and PR: six single cells (FIG. 5)
Description: We cultured single hiPSC-CMs on Matrigel micropatterns, which were transferred from printed glass coverslips onto the surface of polyacrylamide hydrogels with a stiffness of 10 kPa as previously described. (Ribeiro 2015a) In summary, Matrigel was diluted 1:10 in L15 medium (Thermo Fisher) and added to the top of elastomeric microstamps composed of polydimethylsiloxane 182 (Dow Corning) to be incubated at 3-4° C. overnight. Microstamps consisted of 2000 μm^2 rectangular features with an aspect ratio of 7:1 (length:width). We gently aspirated Matrigel after the overnight incubation, washed the stamps twice in L15 medium, aspirated L15 medium from the surface and dried it with a low stream of N2 gas. We then used microstamps to micropattern the Matrigel rectangular features on clean glass coverslips by microcontact printing. Matrigel on micropatterns was transferred to the surface of the polyacrylamide substrates during the gelation process by placing the patterned coverslip in contact with the top of the acrylamide prepolymer solution right before gelation. The aqueous prepolymer solution to be gelled was composed of acrylamide (Sigma-Aldrich)(10% w/v), bisacrylamide (Sigma-Aldrich) (0.1% w/v), ammonium persulfate (Sigma-Aldrich) (0.01% w/v) and N,N,N′,N′-tetramethylethylenediamine (Sigma-Aldrich) (0.1% v/v), HEPES (Thermo Fisher) (35 mM) and Milli-Q water. To calculate the forces generated by cells attached to polyacrylamide surfaces with traction force microscopy, green fluorescent microbeads with a diameter of 0.2 μm (Thermo Fisher) were also dispersed in the gel solution to yield a final concentration of 6.25×10^9 microbeads/mL. We gelled acrylamide on top of another coverslip functionalized with 3-(trimethoxysilyl)propyl methacrylate (Sigma-Aldrich), which binds polyacrylamide. […] Once polymerized, polyacrylamide substrates were incubated in PBS for at least 2 hours and the top coverslips were carefully removed with a razor blade. We seeded hiPSC-CMs on these polyacrylamide hydrogel substrates after washing them 3 times with PBS.
We passaged hiPSC-CMs onto micropatterned polyacrylamide devices at a density of 1000 cells/cm^2. For this purpose, cultures of thawed cells were washed twice with PBS and incubated in 1 mL of Accutase for 8-10 min. After observing cell detachment from the bottom of the wells, we quenched Accutase with Dulbecco's modified Eagle's medium (Thermo Fisher) containing 12% fetal bovine serum and counted the concentration of cells in medium with a hemocytometer. Then, we centrifuged cells at 83 rcf for 3 min at room temperature and aspirated the supernatant to resuspend the pelleted cells in the required volume of medium (RPMI-1640 cell-culture medium with 5 μM ROCK inhibitor) for adding 150 μL of cell solution to the surface of hydrogel devices at a concentration of 1000 cells/cm^2. After 1.5 h of incubation, we added 2.5 mL of medium to the well containing hydrogel devices and added fresh medium without ROCK inhibitor after 2 days. Single beating cells on Matrigel patterns were analyzed between 5-10 days after seeding.
We imaged the movement of beating hiPSC-CMs and the displacement of fluorescent microbeads embedded in polyacrylamide substrates with a Zeiss Axiovert 200M inverted microscope equipped with a Zeiss Axiocam MRm CCD camera. This microscope also contained an environmental chamber (PeCon) to set temperature at 37° C. Unless otherwise noted, we acquired microscopy videos while electrically pacing hiPSC-CMs with 10 ms-wide bipolar pulses of electric-field stimulation at 10-15 V with a frequency of 1 Hz (Myopacer, lonOptix).
To induce contractile changes in hiPSC-CMs, we added drugs known to affect CM contractile machinery to the culture medium. We analyzed the mechanical output of cells after adding drugs. […]

CC(C)NCC(O)c1ccc(O)c(O)c1 (stereo not drawn) [isoproterenol]
t̂ (time between peak velocity of contraction and of relaxation) (0.1 μM and 1 μM isoproterenol, six cells, no significant difference between the two concentrations (FIG. 5G)): decreased
br (beat rate) (0.1 μM and 1 μM isoproterenol, six cells, no significant difference between the two concentrations (FIG. 5H)): increased
br (beat rate) (0.1 μM isoproterenol, single cell (FIG. 4D)): increased
absolute values of dmax, VC, VR, ΣFmax, PC and PR (0.1 μM isoproterenol): consistently increased
br (beat rate) (1 μM isoproterenol, single cell (FIG. 4D)): clear increase
ΣFmax, PC and PR (1 μM isoproterenol, single cell (FIG. 4D,E)): substantial decrease
absolute values of dmax, VC, VR, ΣFmax, PC and PR (1 μM isoproterenol): decreased
PR (peak power of relaxation) (ISO 0.1 (μM per FIG. 4), single cell, no ISO: 0.28): 0.36 picoW
ΣFmax (peak force) (ISO 0.1 (μM per FIG. 4), single cell, no ISO: 0.53): 0.58 μN
PC (peak power of contraction) (ISO 0.1 (μM per FIG. 4), single cell, no ISO: 0.7): 0.86 picoW
VR (peak velocity of relaxation) (ISO 0.1 (μM per FIG. 4), single cell, no ISO: 1.05): 0.85 μm/s
VC (peak velocity of contraction) (ISO 0.1 (μM per FIG. 4), single cell, no ISO: 1.68): 1.92 μm/s
PR (peak power of relaxation) (ISO 1 (μM per FIG. 4), single cell, no ISO: 0.28): 0.06 picoW
ΣFmax (peak force) (ISO 1 (μM per FIG. 4), single cell, no ISO: 0.53): 0.15 μN
PC (peak power of contraction) (ISO 1 (μM per FIG. 4), single cell, no ISO: 0.7): 0.1 picoW
VR (peak velocity of relaxation) (ISO 1 (μM per FIG. 4), single cell, no ISO: 1.05): 0.93 μm/s
VC (peak velocity of contraction) (ISO 1 (μM per FIG. 4), single cell, no ISO: 1.68): 0.43 μm/s
inotropic and chronotropic response (extracellular isoproterenol 0.1 μM (FIGS. 4 and 5)): positive inotropic and positive chronotropic responses
inotropic and chronotropic response (isoproterenol increased to 1 μM (FIGS. 4 and 5)): negative inotropic effect, but a stronger chronotropic response

COC(=O)N1CCN(Cc2cccc(NC(=O)Nc3ccc(C)nc3)c2F)CC1 [omecamtiv mecarbil]
mechanical output (inotropy) (0.1 μM and 10 nM omecamtiv mecarbil, videos within 5 minutes after adding, 6 cells (FIG. 10)): decreased mechanical output (negative inotropy)
ΣFmax and br, acute (0.1 μM omecamtiv mecarbil, single cell (FIG. 6D)): slight acute increase
absolute values of PC and PR right after adding (0.1 μM omecamtiv mecarbil, single cell, even decreased in some contractile events (FIG. 6E)): did not vary
PR (peak power of relaxation) (OM 0.1 μM (FIG. 6), row 'acute', single cell, no OM: 0.6): 0.02 picoW
ΣFmax (peak force) (OM 0.1 μM (FIG. 6), row 'acute', single cell, no OM: 0.7): 0.14 μN
PC (peak power of contraction) (OM 0.1 μM (FIG. 6), row 'acute', single cell, no OM: 0.75): 0.04 picoW
VR (peak velocity of relaxation) (OM 0.1 μM (FIG. 6), row 'acute', single cell, no OM: 1.18): 0.18 μm/s
VC (peak velocity of contraction) (OM 0.1 μM (FIG. 6), row 'acute', single cell, no OM: 1.35): 0.29 μm/s
PR (peak power of relaxation) (OM 0.1 μM (FIG. 6), row 'chronic', single cell, no OM: 0.6): 0.59 picoW
ΣFmax (peak force) (OM 0.1 μM (FIG. 6), row 'chronic', single cell, no OM: 0.7): 0.72 μN
PC (peak power of contraction) (OM 0.1 μM (FIG. 6), row 'chronic', single cell, no OM: 0.75): 0.67 picoW
VR (peak velocity of relaxation) (OM 0.1 μM (FIG. 6), row 'chronic', single cell, no OM: 1.18): 1.1 μm/s
VC (peak velocity of contraction) (OM 0.1 μM (FIG. 6), row 'chronic', single cell, no OM: 1.35): 1.22 μm/s
time of contractions (higher concentrations of omecamtiv mecarbil (FIG. 10D)): increase
rate of beating (lower concentrations of omecamtiv mecarbil (FIG. 10E)): increased
variations of t̂ and br between 0.1 μM and 10 nM (omecamtiv mecarbil, within 5 minutes after adding (FIG. 10D,E)): statistically different
instantaneous acute inotropic effect (within 10 seconds of adding 0.1 μM omecamtiv mecarbil, single cell (FIG. 10J)): positive inotropy
